The numbers were not newly measured in patent publication US20080139531A1, “USE OF CONNECTIVE TISSUE MAST CELL STABILIZERS TO FACILITATE OCULAR SURFACE RE-EPITHELIZATION AND WOUND REPAIR” (ALCON MANUFACTURING LTD., priority 2006, published 2008), which cites them from elsewhere.

In the data set the test system is human conjunctival mast cells. Conditions: qualitative statement citing Yanni et al., 1997.

With `CN(C)CCC=C1c2ccccc2COc2ccc(CC(=O)O)cc21` [olopatadine, 11-(3-dimethylaminopropylidene)-6,11-dihydrodibenz[b,e]oxepin-2-acetic acid], the “inhibition of histamine release from human conjunctival mast cells” value is recorded as “inhibits histamine release”.
Turning to `Cc1cccn2c(=O)c(-c3nnn[nH]3)cnc12` [pemirolast], the “inhibition of histamine release from human conjunctival mast cells” value was “Unlike cromolyn and pemirolast, olopatadine inhibits histamine release”.
